The target in the assay is T1, recombinant E. coli purine nucleoside phosphorylase (PNP) (Escherichia coli, UniProt P0ABP8).
T1 construct: gene deoD
T1 sequence (P0ABP8 2-239): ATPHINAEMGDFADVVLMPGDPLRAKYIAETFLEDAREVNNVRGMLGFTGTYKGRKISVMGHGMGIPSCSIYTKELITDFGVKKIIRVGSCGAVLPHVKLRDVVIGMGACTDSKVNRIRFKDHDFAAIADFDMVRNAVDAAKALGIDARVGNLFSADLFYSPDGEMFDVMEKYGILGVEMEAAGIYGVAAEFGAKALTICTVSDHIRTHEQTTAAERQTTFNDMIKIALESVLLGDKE
As to the kind of experiment: inhibition of PNP nucleoside synthesis. The format is biochemical. Conditions: not a substrate; moderate inhibitor of the synthetic reaction; no value.

Structures are written as SMILES.

The values that follow come from paper PMC4142866, “The chemoenzymatic synthesis of clofarabine and related 2′-deoxyfluoroarabinosyl nucleosides: the electronic and stereochemical factors determining substrate recognition by E. coli nucleoside phosphorylases” (Beilstein Journal of Organic Chemistry, 2014).

Take `Nc1nc(=O)n2ccn([C@@H]3O[C@H](CO)[C@@H](O)[C@@H]3O)c2n1` [4b, arabinoside 4b]: the “inhibition of PNP nucleoside synthesis” value is “nucleosides 4b and 5b are not substrates for E. coli PNP and moderately inhibit”.
In the case of `O=c1[nH]cnc2c1cnn2[C@@H]1O[C@H](CO)[C@@H](O)[C@@H]1O` [5b, arabinoside 5b], the “inhibition of PNP nucleoside synthesis” value was “nucleosides 4b and 5b are not substrates for E. coli PNP and moderately inhibit”.
